According to US12077503B2, “Substituted cyclic amides and their use as herbicides” (FMC CORPORATION, priority 2015, dated 2024):

Columns and labels:
Type in all cases: in vivo
[1] = test system: corn (Zea mays); experiment: Test G Post-Emergence Protocol; settings: for damage to plant, Corn (100=total damage to plant; 0=no damage to plant): 250 g ai/ha
Procedure: (§1) Seeds of corn (Zea mays), giant foxtail (Setaria faberi), barnyardgrass (Echinochloa crus-galli), ivy-leaved morning glory (Ipomoea hederacea), redroot pigweed (Amaranthus retroflexus) and velvetleaf (Abutilon theophrasti) were sown in standard soil in pots. After cultivation for 8 days under controlled conditions in a glasshouse (at 24/16° C., day/night; 14 hours light; 65% humidity), the plants were sprayed with an aqueous spray solution derived from the formulation of the technical active ingredient in acetone/water (50:50) solution containing 0.5% Tween 20 (polyoxyethylene sorbitan monolaurate, CAS RN 9005-64-5) to give a final dose of 15.625, 62.5 or 250 g/ha of test compound.
(§2) The test plants were then grown on under controlled conditions in a glasshouse (at 24/16° C., day/night; 14 hours light; 65% humidity) and watered twice daily. After 13 days the test was evaluated (100=total damage to plant; 0=no damage to plant). A dash (-) means no test result.

[2] = test system: redroot pigweed (Amaranthus retroflexus); experiment: Test G Post-Emergence Protocol; settings: for Pigweed, Redroot damage rating (100=total damage to plant; 0=no damage to plant): 62.5 g ai/ha
Procedure: as §1, §2

[3] = test system: barnyardgrass (Echinochloa crus-galli); experiment: Test G Post-Emergence Protocol; settings: for Barnyardgrass damage rating: 15.625 g ai/ha, evaluated after 13 days (100=total damage to plant; 0=no damage to plant); for Barnyardgrass damage rating (100=total damage to plant; 0=no damage to plant): 62.5 g ai/ha; for Barnyardgrass damage rating (100=total damage to plant; 0=no damage to plant) / damage to plant, Barnyardgrass (100=total damage to plant; 0=no damage to plant): evaluated after 13 days; for damage to plant, Barnyardgrass (100=total damage to plant; 0=no damage to plant): 250 g ai/ha
Procedure: as §1, §2

[4] = test system: velvetleaf (Abutilon theophrasti); experiment: Test G Post-Emergence Protocol; settings: for Velvetleaf damage rating: 15.625 g ai/ha, evaluated after 13 days (100=total damage to plant; 0=no damage to plant); for Velvetleaf damage rating (100=total damage to plant; 0=no damage to plant): 62.5 g ai/ha; for Velvetleaf damage rating (100=total damage to plant; 0=no damage to plant) / damage to plant, Velvetleaf (100=total damage to plant; 0=no damage to plant): evaluated after 13 days; for damage to plant, Velvetleaf (100=total damage to plant; 0=no damage to plant): 250 g ai/ha
Procedure: as §1, §2

[5] = test system: ivy-leaved morning glory (Ipomoea hederacea); experiment: Test G Post-Emergence Protocol; settings: for Morningglory, Ivy-leaved damage rating: 15.625 g ai/ha, evaluated after 13 days (100=total damage to plant; 0=no damage to plant); for Morningglory, Ivy-leaved damage rating (100=total damage to plant; 0=no damage to plant): 62.5 g ai/ha; for Morningglory, Ivy-leaved damage rating (100=total damage to plant; 0=no damage to plant) / damage to plant, Morningglory, Ivy-leaved (100=total damage to plant; 0=no damage to plant): evaluated after 13 days; for damage to plant, Morningglory, Ivy-leaved (100=total damage to plant; 0=no damage to plant): 250 g ai/ha
Procedure: as §1, §2

[6] = test system: giant foxtail (Setaria faberi); experiment: Test G Post-Emergence Protocol; settings: for Foxtail, Giant damage rating: 15.625 g ai/ha, evaluated after 13 days (100=total damage to plant; 0=no damage to plant)
Procedure: as §1, §2

[7] = test system: corn (Zea mays); experiment: Test G Pre-Emergence Protocol; settings: evaluated after 13 days
Procedure: as §1, with “one day” for “8 days”
as §2

[8] = test system: redroot pigweed (Amaranthus retroflexus); experiment: Test G Pre-Emergence Protocol; settings: evaluated after 13 days; for plant damage rating, Pigweed, Redroot: 62.5 g ai/ha, 100=total damage to plant, 0=no damage to plant
Procedure: as §1, with “one day” for “8 days”
as §2

[9] = test system: barnyardgrass (Echinochloa crus-galli); experiment: Test G Pre-Emergence Protocol; settings: evaluated after 13 days
Procedure: as §1, with “one day” for “8 days”
as §2

[10] = test system: velvetleaf (Abutilon theophrasti); experiment: Test G Pre-Emergence Protocol; settings: evaluated after 13 days; for plant damage rating, Velvetleaf: 62.5 g ai/ha, 100=total damage to plant, 0=no damage to plant
Procedure: as §1, with “one day” for “8 days”
as §2

[11] = test system: ivy-leaved morning glory (Ipomoea hederacea); experiment: Test G Pre-Emergence Protocol; settings: evaluated after 13 days; for Morning-glory, Ivy-leaved damage rating (100=total damage to plant; 0=no damage to plant): 15.625 g ai/ha; for plant damage rating, Morningglory, Ivy-leaved: 62.5 g ai/ha, 100=total damage to plant, 0=no damage to plant
Procedure: as §1, with “one day” for “8 days”
as §2

[12] = test system: giant foxtail (Setaria faberi); experiment: Test G Pre-Emergence Protocol; settings: evaluated after 13 days
Procedure: as §1, with “one day” for “8 days”
as §2

[13] = 15.625 g ai/ha, evaluated after 13 days (100=total damage to plant; 0=no damage to plant)
[14] = 62.5 g ai/ha, evaluated after 13 days
[15] = 250 g ai/ha, evaluated after 13 days
[16] = 62.5 g ai/ha, 100=total damage to plant, 0=no damage to plant

SMILES | damage to plant, Corn (100=total damage to plant; 0=no damage to plant) ([1]; evaluated after 13 days) | Pigweed, Redroot damage rating (100=total damage to plant; 0=no damage to plant) ([2]; evaluated after 13 days) | Barnyardgrass damage rating [3] | Barnyardgrass damage rating (100=total damage to plant; 0=no damage to plant) [3] | damage to plant, Barnyardgrass (100=total damage to plant; 0=no damage to plant) [3] | Velvetleaf damage rating [4] | Velvetleaf damage rating (100=total damage to plant; 0=no damage to plant) [4] | damage to plant, Velvetleaf (100=total damage to plant; 0=no damage to plant) [4] | Morningglory, Ivy-leaved damage rating [5] | Morningglory, Ivy-leaved damage rating (100=total damage to plant; 0=no damage to plant) [5] | damage to plant, Morningglory, Ivy-leaved (100=total damage to plant; 0=no damage to plant) [5] | Foxtail, Giant damage rating [6] | Corn damage rating (100=total damage to plant; 0=no damage to plant) ([7]; 15.625 g ai/ha) | Pigweed, Redroot damage rating (100=total damage to plant; 0=no damage to plant) ([8]; 15.625 g ai/ha) | plant damage rating, Pigweed, Redroot [8] | Velvetleaf damage rating (100=total damage to plant; 0=no damage to plant) ([10]; 15.625 g ai/ha) | plant damage rating, Velvetleaf [10] | Velvetleaf damage rating (100=total damage to plant; 0=no damage to plant) ([10]; 250 g ai/ha) | Morning-glory, Ivy-leaved damage rating (100=total damage to plant; 0=no damage to plant) [11] | plant damage rating, Morningglory, Ivy-leaved [11] | further results
CN1C[C@H](c2ccc(C(F)(F)F)cc2)[C@@H](C(=O)Nc2cccc(F)n2)C1=O (racemic) [Compound 1428] | 20 | 10 | 20 | 20 | 40 | 0 | 0 | 0 | 10 | 10 | 20 | 30 | 50 | 0 | 0 | 0 | 0 | 0 | 10 | 10 | plant injury at 15.625 g/ha ([1]; Zea mays, post-emergence, 312 h, 15.625 g ai/ha, evaluated after 13 days (100=total damage to plant; 0=no damage to plant), read-out: Corn damage rating): 10%; plant injury at 62.5 g/ha ([1]; Zea mays, post-emergence, 312 h, 62.5 g ai/ha, evaluated after 13 days, read-out: Corn damage rating (100=total damage to plant; 0=no damage to plant)): 10%; pest or weed control at 15.625 g/ha ([2]; Amaranthus retroflexus, post-emergence, 312 h, 15.625 g ai/ha, evaluated after 13 days (100=total damage to plant; 0=no damage to plant), read-out: Pigweed, Redroot damage rating): 10%; pest or weed control at 250 g/ha ([2]; Amaranthus retroflexus, post-emergence, 312 h, 250 g ai/ha, evaluated after 13 days, read-out: damage to plant, Pigweed, Redroot (100=total damage to plant; 0=no damage to plant)): 40%; pest or weed control at 62.5 g/ha ([6]; Setaria faberi, post-emergence, 312 h, 62.5 g ai/ha, evaluated after 13 days, read-out: Foxtail, Giant damage rating (100=total damage to plant; 0=no damage to plant)): 50%; pest or weed control at 250 g/ha ([6]; Setaria faberi, post-emergence, 312 h, 250 g ai/ha, evaluated after 13 days, read-out: damage to plant, Foxtail, Giant (100=total damage to plant; 0=no damage to plant)): 60%; plant injury at 62.5 g/ha ([7]; Zea mays, pre-emergence, 312 h, 62.5 g ai/ha, 100=total damage to plant, 0=no damage to plant, read-out: plant damage rating, Corn): 20%; plant injury at 250 g/ha ([7]; Zea mays, pre-emergence, 312 h, 250 g ai/ha, read-out: Corn damage rating (100=total damage to plant; 0=no damage to plant)): 70%; pest or weed control at 250 g/ha ([8]; Amaranthus retroflexus, pre-emergence, 312 h, 250 g ai/ha, read-out: Pigweed, Redroot damage rating (100=total damage to plant; 0=no damage to plant)): 80%; pest or weed control at 15.625 g/ha ([9]; Echinochloa crus-galli, pre-emergence, 312 h, 15.625 g ai/ha, read-out: Barnyard grass damage rating (100=total damage to plant; 0=no damage to plant)): 50%; pest or weed control at 62.5 g/ha ([9]; Echinochloa crus-galli, pre-emergence, 312 h, 62.5 g ai/ha, 100=total damage to plant, 0=no damage to plant, read-out: plant damage rating, Barnyardgrass): 60%; pest or weed control at 250 g/ha ([9]; Echinochloa crus-galli, pre-emergence, 312 h, 250 g ai/ha, read-out: Barnyardgrass damage rating (100=total damage to plant; 0=no damage to plant)): 80%; pest or weed control at 250 g/ha ([11]; Ipomoea, pre-emergence, 312 h, 250 g ai/ha, read-out: Morningglory, Ivy-leaved damage rating (100=total damage to plant; 0=no damage to plant)): 40%; pest or weed control at 15.625 g/ha ([12]; Setaria faberi, pre-emergence, 312 h, 15.625 g ai/ha, read-out: Foxtail, Giant damage rating (100=total damage to plant; 0=no damage to plant)): 70%; pest or weed control at 62.5 g/ha ([12]; Setaria faberi, pre-emergence, 312 h, 62.5 g ai/ha, 100=total damage to plant, 0=no damage to plant, read-out: plant damage rating, Foxtail, Giant): 80%; pest or weed control at 250 g/ha ([12]; Setaria faberi, pre-emergence, 312 h, 250 g ai/ha, read-out: Foxtail, Giant damage rating (100=total damage to plant; 0=no damage to plant)): 80%
CN1CC(c2ccc(C(F)(F)F)cc2)C(C(=O)Nc2ccncc2[N+](=O)[O-])C1=O (racemic) [Compound 1568] | 10 | 0 | 0 | 10 | 20 | 0 | 0 | 0 | 0 | 0 | 0 | 0 | 0 | 0 | 0 | 0 | 0 | 0 | 0 | 0 | Corn damage rating [1, 13]: 0; Corn damage rating (100=total damage to plant; 0=no damage to plant) [1, 14]: 0; Pigweed, Redroot damage rating [2, 13]: 0; damage to plant, Pigweed, Redroot (100=total damage to plant; 0=no damage to plant) [2, 15]: 0; Foxtail, Giant damage rating (100=total damage to plant; 0=no damage to plant) [6, 14]: 0; damage to plant, Foxtail, Giant (100=total damage to plant; 0=no damage to plant) [6, 15]: 0; plant damage rating, Corn [7, 16]: 0; Corn damage rating (100=total damage to plant; 0=no damage to plant) ([7]; 250 g ai/ha): 0; Pigweed, Redroot damage rating (100=total damage to plant; 0=no damage to plant) ([8]; 250 g ai/ha): 0; Barnyardgrass damage rating (100=total damage to plant; 0=no damage to plant) ([9]; 15.625 g ai/ha): 0; plant damage rating, Barnyardgrass [9, 16]: 0; Barnyardgrass damage rating (100=total damage to plant; 0=no damage to plant) ([9]; 250 g ai/ha): 0; Morningglory, Ivy-leaved damage rating (100=total damage to plant; 0=no damage to plant) ([11]; 250 g ai/ha): 0; Foxtail, Giant damage rating (100=total damage to plant; 0=no damage to plant) ([12]; 15.625 g ai/ha): 0; plant damage rating, Foxtail, Giant [12, 16]: 0; Foxtail, Giant damage rating (100=total damage to plant; 0=no damage to plant) ([12]; 250 g ai/ha): 0
CN1CC(c2ccc(C(F)(F)F)cc2)C(C(=O)Nc2cccc(Cl)c2[N+](=O)[O-])C1=O (racemic) [Compound 1639] | 10 | 20 | 10 | 30 | 60 | 0 | 0 | 20 | 0 | 10 | 20 | 30 | 0 | 0 | 20 | 0 | 0 | 0 | 0 | 0 | Corn damage rating [1, 13]: 0; Corn damage rating (100=total damage to plant; 0=no damage to plant) [1, 14]: 0; Pigweed, Redroot damage rating [2, 13]: 0; damage to plant, Pigweed, Redroot (100=total damage to plant; 0=no damage to plant) [2, 15]: 60; Foxtail, Giant damage rating (100=total damage to plant; 0=no damage to plant) [6, 14]: 70; damage to plant, Foxtail, Giant (100=total damage to plant; 0=no damage to plant) [6, 15]: 80; plant damage rating, Corn [7, 16]: 0; Corn damage rating (100=total damage to plant; 0=no damage to plant) ([7]; 250 g ai/ha): 0; Pigweed, Redroot damage rating (100=total damage to plant; 0=no damage to plant) ([8]; 250 g ai/ha): 30; Barnyardgrass damage rating (100=total damage to plant; 0=no damage to plant) ([9]; 15.625 g ai/ha): 0; plant damage rating, Barnyardgrass [9, 16]: 10; Barnyardgrass damage rating (100=total damage to plant; 0=no damage to plant) ([9]; 250 g ai/ha): 30; Morningglory, Ivy-leaved damage rating (100=total damage to plant; 0=no damage to plant) ([11]; 250 g ai/ha): 0; Foxtail, Giant damage rating (100=total damage to plant; 0=no damage to plant) ([12]; 15.625 g ai/ha): 30; plant damage rating, Foxtail, Giant [12, 16]: 60; Foxtail, Giant damage rating (100=total damage to plant; 0=no damage to plant) ([12]; 250 g ai/ha): 80
